The results in this text go back to patent publication US12336536B2, “Method for controlling herbicide resistant or tolerant weeds” (BASF Agro B.V., priority 2015, dated 2025).

Assay [1] has as its system ryegrass (LOLMU) biotypes. The assay is described as follows: Greenhouse test, control of resistant weed biotypes, post-emergence, ryegrass. Format: in vivo, Lolium multiflorum. Particulars: for Herbicidal activity: post-emergence, scale 0 to 100. As to the method: The herbicidal activity of herbicide A on resistant weed biotypes was tested in comparison with certain commercial herbicides by the following greenhouse experiments:
The culture containers used were plastic flowerpots containing loamy sand with approximately 3.0% of humus as the substrate. The seeds of the test plants were sown separately for each species. Six blackgrass (ALOMY) (10-103, 10-170, 09-591, 10-123, 11-215, 11-146) and six ryeg rass (LOLMU) (12-166, 12-143, 12-165, 12-307, 13-304, 13-313) biotypes with varying degrees of resistance towards a range of modes of action according to the HRAC (Herbicide Resistance Action Committee) classification on mode of action 2010 (see e.g http://www.hracglobal.com/pages/classificationofherbicidesiteofaction.aspx) were tested alongside two non-resistant biotypes (14-116 and 13-243), see Tables 1 and 2 below.
For the post-emergence treatment, the test plants were first grown to a height of 3 to 15 cm, depending on the plant habit, and only then treated with the active ingredients which had been suspended or emulsified in water. For this purpose, the test plants were either sown directly and grown in the same containers, or they were first grown separately as seedlings and transplanted into the test containers a few days prior to treatment.
Depending on the species, the plants were kept at 10-25° C. or 20-35° C. The test period extended over 2 to 4 weeks. During this time, the plants were tended, and their response to the individual treatments was evaluated.
The racemic mixture (±)-2-exo-(2-Methylbenzyloxy)-1-methyl-4-isopropyl-7-oxabicyclo[2.2.1]heptane was used as herbicide A and formulated as emulsifiable concentrates with an active ingredient concentration of 50 g/l, 100 g/l or 750 g/l respectively.
Flufenacet was used as a commercial concentrated solution formulation having an active ingredient concentration of 500 g/l (Cadou).
Imazamox was used as a water dispersible granule (70% WG).
Evaluation of the herbicidal activity was carried out using a scale from 0 to 100. 100 means complete destruction of at least the aerial moieties, and 0 means no damage, or normal course of growth. A good herbicidal activity is given at values of at least 70 and a very good herbicidal activity is given at values of at least 85.

Assay [2] relates to GALAP. Briefly: Greenhouse test, solo and combination, post-emergence, 20 DAT. Format: in vivo, Galium aparine. Here is the method:
The test plants have been seeded, separately for each species, in plastic containers in sandy loamy soil containing 5% of organic matter.
For the post-emergence treatment, the plants were first grown to the 2 leaf station (GS 12) and applied at GS 12-19 depending on the species. The herbicidal compositions were suspended or emulsified in water as distribution medium and sprayed using finely distributing nozzles.
The plants have been cultivated due to their individual requirements at 10-25° C. and 20-35° C. The plants were irrigated due to their necessity.
The racemic mixture (±)-2-exo-(2-Methylbenzyloxy)-1-methyl-4-isopropyl-7-oxabicyclo[2.2.1]heptane was used as herbicide A and formulated as emulsifiable concentrate having an active ingredient concentration of 750 g/l.
Cyhalofop-butyl (herbicide B.5) was used as an emulsifiable concentrate (EC) formulation having an active ingredient concentration of 200 g/l.
Metsulfuron-methyl (herbicide B.53) was used as a water soluble granule (SG) formulation having an active ingredient concentration of 20%.
Bispyribac-sodium (herbicide B.23) was used as a soluble concentrate (SL) formulation having an active ingredient concentration of 408 g/l.
Quizalofop-P-ethyl (herbicide B.217) was used as a suspension concentrate (SC) formulation having an active ingredient concentration of 106 g/l.
In the following experiments, the herbicidal activity for the individual herbicide compounds (solo and mixture applications) was assessed 20 days after treatment (DAT).
The evaluation for the damage on undesired weeds caused by the chemical compositions was carried out using a scale from 0 to 100%, compared to the untreated control plants. Here, 0 means no damage and 100 means complete destruction of the plants.
The plants used in the greenhouse experiments belonged to the following species:
E=X+Y−(X·Y/100) • where X=effect in percent using herbicide A at an application rate a; • Y=effect in percent using herbicide B at application rate b; • E=expected effect (in %) of herbicide A+herbicide B at application rates a+b.
The value E corresponds to the effect (plant damage or injury) which is to be expected if the activity of the individual compounds is additive. If the observed effect is higher than the value E calculated according to the Colby equation, a synergistic effect is present.
Tables 3 to 6 below relate the herbicidal activity, in greenhouse trials, of the individual actives and the combination applied at different rates and ratios, in post-emergence application at 20 days after treatment (DAT).

For the substance “(±)-2-exo-(2-Methylbenzyloxy)-1-methyl-4-isopropyl-7-oxabicyclo[2.2.1]heptane [Herbicide A]”, the Herbicidal activity in assay [1] (BT 12-143, resistant HRAC group A, B, C, E, K, 125 g ai/ha) amounted to 80; in assay [1] (BT 12-143, resistant HRAC group A, B, C, E, K, 250 g ai/ha) it was 95; in assay [1] (BT 12-165, resistant HRAC group A, B, E, K, 125 g ai/ha), 95; in assay [1] (BT 12-165, resistant HRAC group A, B, E, K, 250 g ai/ha), 100; in assay [1] (BT 12-166, resistant HRAC group A, B, E, K, 125 g ai/ha) it was 90; in assay [1] (BT 12-166, resistant HRAC group A, B, E, K, 250 g ai/ha), 90. Also, the Herbicidal activity in assay [1] (BT 12-307, resistant HRAC group B, F, K, O, 125 g ai/ha) stood at 70; in assay [1] (BT 12-307, resistant HRAC group B, F, K, O, 250 g ai/ha), 90; in assay [1] (BT 13-243, Sensitive standard, 125 g ai/ha), 75; in assay [1] (BT 13-243, Sensitive standard, 250 g ai/ha) it was 90; in assay [1] (BT 13-304, resistant HRAC group A, B, E, K, 125 g ai/ha), 85; in assay [1] (BT 13-304, resistant HRAC group A, B, E, K, 250 g ai/ha), 95. Further, the Herbicidal activity in assay [1] (BT 13-313, resistant HRAC group A, B, C, E, K, 125 g ai/ha) is listed as 70; in assay [1] (BT 13-313, resistant HRAC group A, B, C, E, K, 250 g ai/ha), 95; in assay [2] (solo application 62.5 g ai/ha), 25%; in assay [2] (solo application 125 g ai/ha), 35%; in assay [2] (solo application 250 g ai/ha) it was 35%; in assay [2] (solo application 500 g ai/ha), 45%. Besides, the “herbicidal activity (summary in words)” value in assay [1] (post-emergence treatment, various biotypes of ryegrass (LOLMU) with varying degrees of resistance) is on record as “very good herbicidal activity (a very good herbicidal activity is given at values of at least 85)”.
